Measured values reported in patent publication US8476253B2, “Amide derivative” (Daiichi Sankyo Company, Limited, priority 2009, dated 2013).
Where a name gives a salt, the structure may show the parent alone. Read-outs that look alike come from different tables or passages of the source.

Key:
human NK2 receptor = biological target: T1, human NK2 receptor (Homo sapiens, UniProt P21452); experiment: Test for binding to human NK2 receptor
T1 construct: expressed in transfected cells; host or cells: COS cells
T1 sequence (P21452 1-398): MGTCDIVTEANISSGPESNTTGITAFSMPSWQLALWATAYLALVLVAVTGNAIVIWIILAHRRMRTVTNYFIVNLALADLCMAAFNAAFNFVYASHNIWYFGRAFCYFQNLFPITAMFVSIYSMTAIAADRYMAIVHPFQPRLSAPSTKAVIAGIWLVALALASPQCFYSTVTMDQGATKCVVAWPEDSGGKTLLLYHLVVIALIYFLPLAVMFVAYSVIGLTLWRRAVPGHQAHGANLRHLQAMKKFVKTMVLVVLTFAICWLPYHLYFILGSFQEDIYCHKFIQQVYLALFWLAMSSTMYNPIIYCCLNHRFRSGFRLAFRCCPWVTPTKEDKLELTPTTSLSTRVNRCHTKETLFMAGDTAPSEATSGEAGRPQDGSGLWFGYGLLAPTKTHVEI
Procedure, shortened: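 Radioligand binding with [^3H]SR 48968 on cryopreserved COS cells expressing human NK2 receptor (5.0×10^5 cells/mL), in 50 mM Tris-HCl pH 7.4 with BSA, MnCl2 and protease inhibitors. Bound label collected on PEI-treated GF/B filters, counted by liquid scintillation; Ki derived from IC50 and radioligand Kd.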

muscarine M3 receptor = experiment: Effect of suppressing methacholine-induced airway contraction (in vivo, intratracheal administration); set-up: species or system guinea pig; settings: guinea pigs, intratracheal administration 60 minutes before 30 μg/kg i.v. methacholine, AUC of increase in airway pressure over 10 minutes
Experimental: (§1) Using healthy guinea pigs (body weight, 350 to 550 g; Hartley male guinea pigs), the effect of suppressing airway contraction induced by methacholine, which is a muscarine receptor agonist, was examined by a modified method of Konzett-Roessler (Naunyn-Schmiedebergs Arch. Exp. Pathol. Pharmakol. 195, 71 [1940]) using airway pressure as an indicator.
(§2) A tracheal cannula and a venous cannula were attached to a guinea pig anesthetized with pentobarbital (50 mg/mL of solution, 0.40 to 0.50 mL/body, subcutaneous administration). An arterial cannula filled with heparin-containing physiological saline (100 U/mL) was further attached, and blood pressure and heart rate were monitored via an amplifier and an instantaneous heart rate meter. Subsequently, gallamine (20 mg/body, intravenous administration) was administered to terminate spontaneous breathing, and then 10 mL/kg of positive pressure breathing (Ugo-Basile Biological Research Apparatus, Cat. No. 7025) was rapidly performed at 60 times/min. The airway pressure during artificial breathing was detected with a pressure transducer (TP-200T or TP-400T; Nihon Kohden Corporation) attached to a side branch of the tracheal cannula, amplified (AP-601G; Nihon Kohden Corporation), and recorded in a recorder. After the airway pressure, blood pressure, and heart rate were stabilized, 30 μg/kg of methacholine was intravenously administered from the venous cannula to induce airway contraction, and the airway pressure was measured for the following 10 minutes.
A test substance was dissolved in 5% glucose solution, and a 0.5 mL/kg solution was administered intratracheally with an intratracheal administration apparatus (model 1A-1B; Penn-Century, Inc.) 60 minutes before stimulation with methacholine.
(§3) The AUC of increase in the airway pressure over 10 minutes after administration of methacholine was measured as the intensity of methacholine-induced airway contraction and calculated as an ID50 value from the inhibition rate based on the value of the control group (a 5% glucose solution intratracheal administration group).

neurokinin NK1 receptor = biological target: T2, neurokinin NK1 receptor (Cavia porcellus, UniProt P30547); experiment: Effect of suppressing substance P-induced airway contraction (in vivo, intratracheal administration); set-up: species or system guinea pig; settings: guinea pigs, intratracheal administration 60 minutes before 20 μg/kg i.v. SP, AUC of increase in airway pressure over 10 minutes; for ED50: guinea pig, read-out: ID50 (the source's name)
T2 construct: Using healthy guinea pigs (body weight, 350 to 550 g; Hartley male guinea pigs); from tissue; host or cells: live anaesthetised Hartley male guinea pigs (airway, in vivo)
T2 sequence (P30547 whole entry): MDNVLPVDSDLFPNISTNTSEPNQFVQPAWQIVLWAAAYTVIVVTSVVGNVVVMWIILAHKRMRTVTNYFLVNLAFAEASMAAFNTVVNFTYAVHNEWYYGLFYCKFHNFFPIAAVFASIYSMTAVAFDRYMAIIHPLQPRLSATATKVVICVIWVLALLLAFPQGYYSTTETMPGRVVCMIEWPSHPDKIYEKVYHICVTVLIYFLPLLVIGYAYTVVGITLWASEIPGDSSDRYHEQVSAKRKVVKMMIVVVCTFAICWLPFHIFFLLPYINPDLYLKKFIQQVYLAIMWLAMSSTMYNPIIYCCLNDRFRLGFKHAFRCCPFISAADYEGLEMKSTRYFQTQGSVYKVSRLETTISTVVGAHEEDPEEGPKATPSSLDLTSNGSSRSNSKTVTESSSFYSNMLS
Experimental: as §1, with “substance P (SP),” for “methacholine,”, “an NK1” for “a muscarine”
as §2, with “mg/mL” for “mg/mL of”, “20” for “30”, “SP” for “methacholine”
The test substance was dissolved in a 5% glucose solution, a 0.5 mL/kg solution was intratracheally administered with an intratracheal administration apparatus (model 1A-1B; Penn-Century, Inc.) 60 minutes before stimulation with SP.
as §3, with “SP” for “methacholine”, “determined” for “measured”, “SP-induced” for “methacholine-induced”, “(5%” for “(a 5%”

[1] = COS cells expressing human NK2 receptor, [3H]SR 48968 1 nM, Ki from IC50 and Kd, read-out: Ki

CN(CCN1CCC(OC(=O)Nc2ccccc2-c2ccccc2)CC1)C(=O)CCCCCNc1ccc(C(=O)N(C)CCN(C)C(=O)CO[C@H]2Cc3ccccc3C23CCN(CC[C@@]2(c4ccc(F)cc4)CN(C(=O)c4cc(C(F)(F)F)cc(C(F)(F)F)c4)CO2)CC3)cc1 [Example 15, 1-(2-{[6-({4-[{2-[({[(2S)-1-{2-[(5R)-3-[3,5-Bis(trifluoromethyl)benzoyl]-5-(4-fluorophenyl)-1,3-oxazolidin-5-yl]ethyl}-2,3-dihydrospiro[indene-1,4′-piperidin]-2-yl]oxy}acetyl)(methyl)amino]ethyl}(methyl)carbamoyl]phenyl}amino)hexanoyl](methyl)amino}ethyl)piperidin-4-yl biphenyl-2-ylcarbamate]
Ki (human NK2 receptor; [1]): 0.91 nM | ID50 (muscarine M3 receptor): 0.0375 mg/kg | ID50 (neurokinin NK1 receptor): 0.0224 mg/kg

CN(CCN1CCC(OC(=O)Nc2ccccc2-c2ccccc2)CC1)C(=O)COCCCNc1ccc(C(=O)N(C)CCCN(C)C(=O)CO[C@H]2Cc3ccccc3C23CCN(CC[C@@]2(c4ccc(F)cc4)CN(C(=O)c4cc(C(F)(F)F)cc(C(F)(F)F)c4)CO2)CC3)cc1 [Example 27, 1-{2-[{[3-({4-[{3-[({[(2S)-1′-{2-[(5R)-3-[3,5-Bis(trifluoromethyl)benzoyl]-5-(4-fluorophenyl)-1,3-oxazolidin-5-yl]ethyl}-2,3-dihydrospiro[indene-1,4′-piperidin]-2-yl]oxy}acetyl)(methyl)amino]propyl}(methyl)carbamoyl]phenyl}amino)propoxy]acetyl}(methyl)amino]ethyl}piperidin-4-yl biphenyl-2-ylcarbamate trihydrochloride]
Ki (human NK2 receptor): 0.76 nM | ID50 (muscarine M3 receptor): 0.0218 mg/kg | ED50 (neurokinin NK1 receptor): 0.0229 mg/kg

Cc1cc(NCCCCCC(=O)N(C)CCN2CCC(OC(=O)Nc3ccccc3-c3ccccc3)CC2)sc1C(=O)N(C)CCCN(C)C(=O)CO[C@H]1Cc2ccccc2C12CCN(CC[C@@]1(c3ccc(F)cc3)CN(C(=O)c3cc(C(F)(F)F)cc(C(F)(F)F)c3)CO1)CC2 [Example 30, 1-(2-{[6-({5-[{3-[({[(2S)-1′-{2-[(5R)-3-[3,5-Bis(trifluoromethyl)benzoyl]-5-(4-fluorophenyl)-1,3-oxazolidin-5-yl]ethyl}-2,3-dihydrospiro[indene-1,4′-piperidin]-2-yl]oxy}acetyl)(methyl)amino]propyl}(methyl)carbamoyl]-4-methyl-2-thienyl}amino)hexanoyl](methyl)amino}ethyl)piperidin-4-yl biphenyl-2-ylcarbamate trihydrochloride]
Ki (human NK2 receptor): 0.71 nM | ID50 (muscarine M3 receptor): 0.0088 mg/kg | ED50 (neurokinin NK1 receptor): 0.0388 mg/kg

CN(CCN1CCC(OC(=O)Nc2ccccc2-c2ccccc2)CC1)C(=O)CCNc1ccc(C(=O)N(C)CCCN(C)C(=O)CO[C@H]2Cc3ccccc3C23CCN(CC[C@@]2(c4ccc(F)cc4)CN(C(=O)c4cc(C(F)(F)F)cc(C(F)(F)F)c4)CO2)CC3)cc1 [Example 94, 1-{2-[(N-{4-[{3-[({[(2S)-1′-{2-[(5R)-3-[3,5-Bis(trifluoromethyl)benzoyl]-5-(4-fluorophenyl)-1,3-oxazolidin-5-yl]ethyl}-2,3-dihydrospiro[indene-1,4′-piperidin]-2-yl]oxy}acetyl)(methyl)amino]propyl}(methyl)carbamoyl]phenyl}-β-alanyl)(methyl)amino]ethyl}piperidin-4-yl biphenyl-2-ylcarbamate]
Ki (human NK2 receptor; [1]): 0.75 nM | ID50 (muscarine M3 receptor): 0.0395 mg/kg | ED50 (neurokinin NK1 receptor): 0.0087 mg/kg

CN(CCN1CCC(OC(=O)Nc2ccccc2-c2ccccc2)CC1)C(=O)CCCCCNc1cccc(C(=O)N(C)CCCN(C)C(=O)CO[C@H]2Cc3ccccc3C23CCN(CC[C@@]2(c4ccc(F)cc4)CN(C(=O)c4cc(C(F)(F)F)cc(C(F)(F)F)c4)CO2)CC3)c1 [Example 43, 1-(2-{[6-({3-[{3-[({[(2S)-1′-{2-[(5R)-3-[3,5-Bis(trifluoromethyl)benzoyl]-5-(4-fluorophenyl)-1,3-oxazolidin-5-yl]ethyl}-2,3-dihydrospiro[indene-1,4′-piperidin]-2-yl]oxy}acetyl)(methyl)amino]propyl}(methyl)carbamoyl]phenyl}amino)hexanoyl](methyl)amino}ethyl)piperidin-4-yl biphenyl-2-ylcarbamate trihydrochloride]
Ki (human NK2 receptor): 1.3 nM | ID50 (muscarine M3 receptor): 0.0757 mg/kg | ED50 (neurokinin NK1 receptor): 0.0766 mg/kg

CN(CCCCCC(=O)N(C)CCN1CCC(OC(=O)Nc2ccccc2-c2ccccc2)CC1)Cc1ccc(C(=O)N(C)CCCN(C)C(=O)CO[C@H]2Cc3ccccc3C23CCN(CC[C@@]2(c4ccc(F)cc4)CN(C(=O)c4cc(C(F)(F)F)cc(C(F)(F)F)c4)CO2)CC3)cc1 [Example 74, 1-{2-[{6-[{4-[{3-[({[(2S)-1′-{2-[(5R)-3-[3,5-Bis(trifluoromethyl)benzoyl]-5-(4-fluorophenyl)-1,3-oxazolidin-5-yl]ethyl}-2,3-dihydrospiro[indene-1,4′-piperidin]-2-yl]oxy}acetyl)(methyl)amino]propyl}(methyl)carbamoyl]benzyl}(methyl)amino]hexanoyl}(methyl)amino]ethyl}piperidin-4-yl biphenyl-2-ylcarbamate]
Ki (human NK2 receptor; [1]): 0.14 nM | ID50 (muscarine M3 receptor): 0.043 mg/kg | ED50 (neurokinin NK1 receptor): 0.0174 mg/kg

CN(CCN1CCC(OC(=O)Nc2ccccc2-c2ccccc2)CC1)C(=O)CCCCCNc1ccc(C(=O)N(C)CCN(C)C(=O)CO[C@H]2Cc3ccccc3C23CCN(CC[C@@]2(c4ccc(F)cc4)CN(C(=O)c4cc(C(F)(F)F)cc(C(F)(F)F)c4)CO2)CC3)cc1 [Example 16, 1-(2-{[6-({4-[{2-[({[(2S)-1′-{2-[(5R)-3-[3,5-Bis(trifluoromethyl)benzoyl]-5-(4-fluorophenyl)-1,3-oxazolidin-5-yl]ethyl}-2,3-dihydrospiro[indene-1,4′-piperidin]-2-yl]oxy}acetyl)(methyl)amino]ethyl}(methyl)carbamoyl]phenyl}amino)hexanoyl](methyl)amino}ethyl)piperidin-4-yl biphenyl-2-ylcarbamate trihydrochloride]
Ki (human NK2 receptor): 0.49 nM | ID50 (muscarine M3 receptor; trihydrochloride): 0.0191 mg/kg | ED50 (neurokinin NK1 receptor): 0.016 mg/kg
